Data as given in the NIST ThermoML archive (doi:10.1021/je7003116).
± gives the expanded uncertainty stated by the source.

Experiment: mn = molality of the nth substance listed, in mol/kg
Details: 101 kPa, Liquid; for electrical conductivity: Alternating current cell with electrodes

CC(=O)CC(c1ccccc1)c1c([O-])c2ccccc2oc1=O.[Na+] (stereo not given) [warfarin sodium] + O
Details	electrical conductivity [S/m]	mass density [kg/m3]
303.15 K, m1 = 0.176	–	1009.57 ± 0.76
303.15 K, m1 = 0.2	–	1011.47 ± 0.78
303.15 K, m1 = 0.225	–	1013.56 ± 0.8
303.15 K, m1 = 0.25	–	1015.65 ± 0.83
303.15 K, m1 = 0.275	–	1017.69 ± 0.85
303.15 K, m1 = 0.3	–	1019.77 ± 0.88
303.15 K, m1 = 0.325	–	1021.79 ± 0.91
303.15 K, m1 = 0.35	–	1023.81 ± 0.93
303.15 K, m1 = 0.375	–	1025.71 ± 0.96
303.15 K, m1 = 0.3999	–	1027.67 ± 0.99
313.15 K, m1 = 0.005	0.0299 ± 0.001	–
313.15 K, m1 = 0.00576	–	992.687 ± 0.76
313.15 K, m1 = 0.006	0.0358 ± 0.001	–
313.15 K, m1 = 0.00695	–	992.784 ± 0.71
313.15 K, m1 = 0.007	0.0416 ± 0.001	–
313.15 K, m1 = 0.00759	–	992.836 ± 0.7
313.15 K, m1 = 0.008	0.0474 ± 0.001	–
313.15 K, m1 = 0.00857	–	992.916 ± 0.71
313.15 K, m1 = 0.009	0.0532 ± 0.001	–
313.15 K, m1 = 0.00988	–	993.022 ± 0.71
313.15 K, m1 = 0.01	0.059 ± 0.001	–
313.15 K, m1 = 0.02	0.1131 ± 0.001	–
313.15 K, m1 = 0.0241	–	994.171 ± 0.7
313.15 K, m1 = 0.04	0.216 ± 0.006	–
313.15 K, m1 = 0.047	–	995.977 ± 0.69
313.15 K, m1 = 0.06	0.314 ± 0.006	–
313.15 K, m1 = 0.0719	–	997.928 ± 0.67
313.15 K, m1 = 0.08	0.401 ± 0.006	–
313.15 K, m1 = 0.0984	–	999.945 ± 0.66
313.15 K, m1 = 0.1	0.489 ± 0.006	–
313.15 K, m1 = 0.125	0.595 ± 0.006	1001.91 ± 0.68
313.15 K, m1 = 0.15	0.694 ± 0.006	1003.72 ± 0.7
313.15 K, m1 = 0.175	0.79 ± 0.006	–
313.15 K, m1 = 0.176	–	1005.74 ± 0.72
313.15 K, m1 = 0.2	0.88 ± 0.006	1007.59 ± 0.75
313.15 K, m1 = 0.225	0.963 ± 0.006	1009.61 ± 0.77
313.15 K, m1 = 0.25	1.046 ± 0.006	1011.64 ± 0.8
313.15 K, m1 = 0.275	1.13 ± 0.01	1013.62 ± 0.82
313.15 K, m1 = 0.3	1.206 ± 0.006	1015.64 ± 0.85
313.15 K, m1 = 0.325	–	1017.6 ± 0.87
313.15 K, m1 = 0.35	–	1019.56 ± 0.9
313.15 K, m1 = 0.375	–	1021.4 ± 0.93
313.15 K, m1 = 0.4009	–	1023.31 ± 0.95
323.15 K, m1 = 0.005	0.0327 ± 0.001	–
323.15 K, m1 = 0.00585	–	988.498 ± 0.74
323.15 K, m1 = 0.006	0.039 ± 0.001	–
323.15 K, m1 = 0.007	0.0454 ± 0.001	–
323.15 K, m1 = 0.00702	–	988.591 ± 0.74
323.15 K, m1 = 0.00767	–	988.642 ± 0.74
323.15 K, m1 = 0.008	0.0516 ± 0.001	–
323.15 K, m1 = 0.0087	–	988.722 ± 0.74
323.15 K, m1 = 0.009	0.0576 ± 0.001	–
323.15 K, m1 = 0.01	0.0638 ± 0.001	–
323.15 K, m1 = 0.01001	–	988.824 ± 0.74
323.15 K, m1 = 0.02	0.1211 ± 0.001	–
323.15 K, m1 = 0.0243	–	989.947 ± 0.73
323.15 K, m1 = 0.04	0.233 ± 0.006	–
323.15 K, m1 = 0.0469	–	991.708 ± 0.72
323.15 K, m1 = 0.06	0.338 ± 0.006	–
323.15 K, m1 = 0.072	–	993.609 ± 0.71
323.15 K, m1 = 0.08	0.429 ± 0.006	–
323.15 K, m1 = 0.0985	–	995.582 ± 0.7
323.15 K, m1 = 0.1	0.523 ± 0.006	–
323.15 K, m1 = 0.125	0.634 ± 0.006	997.493 ± 0.69
323.15 K, m1 = 0.15	0.734 ± 0.006	999.248 ± 0.68
323.15 K, m1 = 0.175	0.83 ± 0.006	–
323.15 K, m1 = 0.1765	–	1001.22 ± 0.69
323.15 K, m1 = 0.2	0.921 ± 0.006	1003.02 ± 0.71
323.15 K, m1 = 0.225	1.008 ± 0.006	1004.99 ± 0.73
323.15 K, m1 = 0.25	1.091 ± 0.006	1006.96 ± 0.76
323.15 K, m1 = 0.275	1.171 ± 0.006	1008.89 ± 0.78
323.15 K, m1 = 0.3	1.245 ± 0.006	1010.86 ± 0.81
323.15 K, m1 = 0.325	–	1012.77 ± 0.83
323.15 K, m1 = 0.35	–	1014.68 ± 0.86
323.15 K, m1 = 0.375	–	1016.47 ± 0.88
323.15 K, m1 = 0.4021	–	1018.32 ± 0.91
